Test results: PubChem BioAssay (NCI)
Where “and” joins values, the source holds several entries; their conditions need not be identical. Equal entries are not always repeated.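 A five-concentration, 48-hour dose response in 96-well plates underlies each endpoint, interpolated linearly between surrounding concentrations. Here, GI50 denotes the concentration required for 50% inhibition of growth. Definition used: TGI = concentration required for complete inhibition of growth.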

These compounds were tested on EKVX NSCLC (assay: NCI anticancer screen, dose series, 48 h).
In the case of `CSc1nc(NC2OC(COC(C)=O)C(OC(C)=O)C(OC(C)=O)C2OC(C)=O)c(N=CC=Nc2c(NC3OC(COC(C)=O)C(OC(C)=O)C(OC(C)=O)C3OC(C)=O)nc(SC)n(C)c2=O)c(=O)n1C` (centres undefined), the GI50 is reported as over 50 µM and the TGI is reported as over 100 µM. `O=S(=O)(Nc1ccc(Cl)cc1Cl)c1ccc(-c2cnc(C3CC3)o2)cc1` gave a GI50 of 2.56 µM and a TGI of 88.6 µM. With `CCc1ccc(/C=C/c2ccc(O)c3ncccc23)[n+](C)c1` the GI50 was 0.777 µM and the TGI was over 100 µM. In the case of `S=c1[nH]c2c(Cl)c(Cl)c(Cl)c(Cl)c2[nH]1`, the TGI is reported as 37.4 µM. `Cc1ccc(Nc2oc(-c3ccccc3)nc2[P+](c2ccccc2)(c2ccccc2)c2ccccc2)cc1` showed a GI50 of 0.616 µM and a TGI of 2.38 µM. Work on `CS(=O)(=O)Nc1cc(-c2ccc3ncnc(Nc4c(Cl)ccc5c4OCO5)c3c2)cnc1Cl` yielded a GI50 of 0.116 µM and a TGI of 0.824 µM. `COc1ccccc1Nc1ncc(-c2ccccc2)o1` gave a GI50 of over 25 µM and a TGI of over 25 µM. Work on `Nc1ccn(C2OC(CO)C(O)C2O)c(=O)n1` (centres undefined) yielded a TGI of over 500 µM. `O=C1CCC(=O)c2c1c(O)c1ccncc1c2O` gave a TGI of 47.6 µM. For `CN(C)c1ccc(N=Nc2ccccn2)c(O)c1`, the GI50 was 0.2 µM and the TGI was 14.4 µM. `CN1CC[C@@H](c2c(O)cc(O)c3c(=O)cc(-c4ccc(C(F)(F)F)cc4Cl)oc23)[C@@H]1CO` showed a GI50 of 13.9 µM and a TGI of 37.5 µM. `COC(=O)C1=C(C(=O)OC)C2=S(SC3=C2CCCC3)S1` (centres undefined) gave a TGI of over 100 µM. `O=C(NNc1ccccc1)C(=O)NNc1ccccc1` showed a GI50 of over 100 µM and a TGI of over 100 µM. Work on `O=C(Nc1ccc(Cl)c(C(F)(F)F)c1)c1ccc(NC2=C(Cl)C(=O)N(Cc3ccccc3)C2=O)cc1` yielded a GI50 of 11.5 µM and a TGI of 34.5 µM.

These compounds were tested on CCRF-CEM leukemia (assay: NCI anticancer screen, dose series, 48 h).
`COc1cc(/C=C/C(=O)c2cccc(-n3cc(-c4ccc(Cl)cc4)[nH]c3=O)c2)ccc1O` was tested, and the GI50 was 0.706 µM and the TGI was 4.42 µM. `Cc1ccc2c(C3C(C#N)=C(N)Oc4cc5ccccc5cc43)cc(=O)oc2c1` (centres undefined) was tested, and the GI50 was 0.976 µM and the TGI was over 100 µM. For `C[N+](C)(C)CC1CCC/C1=N\OC(=O)c1ccccc1` (centres undefined), the TGI was over 100 µM. With `O=C(Nc1cc(C(F)(F)F)ccc1Cl)c1cccc(NC2=C(Cl)C(=O)N(Cc3ccccc3)C2=O)c1` the GI50 was 2.71 µM and the TGI was over 100 µM. For `CC1(Br)Cc2ccccc2C1=O` (centres undefined), the GI50 was 0.318 µM and the TGI was 6.75 µM and 1.82 µM. For `COc1ccc2c(c1)c[n+](C)c1c3cc(OC)c(OC)cc3ccc21`, the GI50 was 0.559 µM and 1.42 µM and the TGI was > 100 µM and 12.4 µM. In the case of `CN(C)C(=S)Sc1ccc([N+](=O)[O-])cc1[N+](=O)[O-]`, the GI50 is reported as 0.406 µM and the TGI is reported as over 43.6 µM. Compound `O=C1c2cc3c(cc2-c2c1c1cc(Cl)c(Cl)cc1c(=O)n2C[C@H](O)CO)OCO3` has a GI50 of under 0.01 µM and a TGI of 19.1 µM. `CC(C)(C)[Si](C)(C)OC1C(=O)C[C@H]2CCCC[C@@H]12` (some centres undefined) showed a TGI of over 100 µM. `CC1(C)N=C(N)N=C(N)N1c1ccc(CCCCc2ccc(Cl)c(S(=O)(=O)F)c2)c(Cl)c1` was tested, and the GI50 was 0.168 µM and the TGI was 8.65 µM. For `CCc1c(Cl)c(C)cc(O)c1Cl`, the TGI was 91.7 µM. Work on `BrCc1cccc(C[P+](c2ccccc2)(c2ccccc2)c2ccccc2)c1` yielded a GI50 of 13.3 µM and a TGI of over 100 µM. `C=COC(=O)N[C@H]1CCc2cc(OC)c(OC)c(OC)c2-c2ccc(SC)c(=O)cc21` was tested, and the TGI was over 80.1 µM. `Cc1ccc(NC(=O)CCc2nnc(N)o2)cc1` was tested, and the TGI was over 100 µM. With `CN(C)c1ncnc2c1ncn2CCn1cnc2c(N(C)C)ncnc21` the TGI was over 100 µM. For `CSc1nc(NC2OC(COC(C)=O)C(OC(C)=O)C(OC(C)=O)C2OC(C)=O)c(N=CC=Nc2c(NC3OC(COC(C)=O)C(OC(C)=O)C(OC(C)=O)C3OC(C)=O)nc(SC)n(C)c2=O)c(=O)n1C` (centres undefined), the GI50 was over 50 µM and the TGI was over 100 µM. `O=S(=O)(Nc1ccc(Cl)cc1Cl)c1ccc(-c2cnc(C3CC3)o2)cc1` showed a GI50 of 0.509 µM and a TGI of over 100 µM. In the case of `CCc1ccc(/C=C/c2ccc(O)c3ncccc23)[n+](C)c1`, the GI50 is reported as 4.95 µM and the TGI is reported as over 100 µM. Work on `S=c1[nH]c2c(Cl)c(Cl)c(Cl)c(Cl)c2[nH]1` yielded a TGI of 19.5 µM. `Cc1ccc(Nc2oc(-c3ccccc3)nc2[P+](c2ccccc2)(c2ccccc2)c2ccccc2)cc1` gave a GI50 of 0.547 µM and a TGI of 4.77 µM. `CS(=O)(=O)Nc1cc(-c2ccc3ncnc(Nc4c(Cl)ccc5c4OCO5)c3c2)cnc1Cl` showed a GI50 of 0.15 µM and a TGI of 6.84 µM. In the case of `COc1ccccc1Nc1ncc(-c2ccccc2)o1`, the GI50 is reported as over 25 µM and the TGI is reported as over 25 µM. With `Nc1ccn(C2OC(CO)C(O)C2O)c(=O)n1` (centres undefined) the GI50 was < 0.0107 µM and 0.00608 µM and 0.0148 µM. `O=C1CCC(=O)c2c1c(O)c1ccncc1c2O` was tested, and the TGI was 39.4 µM. `CN(C)c1ccc(N=Nc2ccccn2)c(O)c1` showed a GI50 of 0.0979 µM. For `CN1CC[C@@H](c2c(O)cc(O)c3c(=O)cc(-c4ccc(C(F)(F)F)cc4Cl)oc23)[C@@H]1CO`, the GI50 was 23.4 µM and the TGI was 70.2 µM. `COC(=O)C1=C(C(=O)OC)C2=S(SC3=C2CCCC3)S1` (centres undefined) showed a TGI of 19.7 µM. In the case of `O=C(NNc1ccccc1)C(=O)NNc1ccccc1`, the GI50 is reported as 0.637 µM and the TGI is reported as over 100 µM. `O=C(Nc1ccc(Cl)c(C(F)(F)F)c1)c1ccc(NC2=C(Cl)C(=O)N(Cc3ccccc3)C2=O)cc1` gave a GI50 of 1.98 µM and a TGI of 6.07 µM.

The compounds below were run on SN12C renal (assay: NCI anticancer screen, dose series, 48 h).
`COc1cc(/C=C/C(=O)c2cccc(-n3cc(-c4ccc(Cl)cc4)[nH]c3=O)c2)ccc1O` showed a GI50 of 2.81 µM and a TGI of over 60.9 µM. Compound `Cc1ccc2c(C3C(C#N)=C(N)Oc4cc5ccccc5cc43)cc(=O)oc2c1` (centres undefined) has a GI50 of 5.27 µM and a TGI of over 100 µM. Work on `C[N+](C)(C)CC1CCC/C1=N\OC(=O)c1ccccc1` (centres undefined) yielded a TGI of over 100 µM. `O=C(Nc1cc(C(F)(F)F)ccc1Cl)c1cccc(NC2=C(Cl)C(=O)N(Cc3ccccc3)C2=O)c1` was tested, and the GI50 was 32.1 µM and the TGI was over 100 µM. Compound `CC1(Br)Cc2ccccc2C1=O` (centres undefined) has a GI50 of 4.55 µM and a TGI of 14.8 µM. In the case of `COc1ccc2c(c1)c[n+](C)c1c3cc(OC)c(OC)cc3ccc21`, the TGI is reported as 3.53 µM and 8.51 µM. `CN(C)C(=S)Sc1ccc([N+](=O)[O-])cc1[N+](=O)[O-]` gave a GI50 of 3.24 µM and a TGI of 11.2 µM. `O=C1c2cc3c(cc2-c2c1c1cc(Cl)c(Cl)cc1c(=O)n2C[C@H](O)CO)OCO3` gave a GI50 of under 0.01 µM and a TGI of 0.122 µM. `CC(C)(C)[Si](C)(C)OC1C(=O)C[C@H]2CCCC[C@@H]12` (some centres undefined) was tested, and the TGI was over 100 µM. With `CC1(C)N=C(N)N=C(N)N1c1ccc(CCCCc2ccc(Cl)c(S(=O)(=O)F)c2)c(Cl)c1` the GI50 was 0.306 µM and the TGI was 16.2 µM. `CCc1c(Cl)c(C)cc(O)c1Cl` showed a TGI of 30.9 µM. `BrCc1cccc(C[P+](c2ccccc2)(c2ccccc2)c2ccccc2)c1` gave a GI50 of 18.4 µM and a TGI of over 100 µM. Work on `C=COC(=O)N[C@H]1CCc2cc(OC)c(OC)c(OC)c2-c2ccc(SC)c(=O)cc21` yielded a TGI of 54.7 µM. In the case of `Cc1ccc(NC(=O)CCc2nnc(N)o2)cc1`, the TGI is reported as over 100 µM. `CN(C)c1ncnc2c1ncn2CCn1cnc2c(N(C)C)ncnc21` was tested, and the TGI was over 100 µM. Compound `CSc1nc(NC2OC(COC(C)=O)C(OC(C)=O)C(OC(C)=O)C2OC(C)=O)c(N=CC=Nc2c(NC3OC(COC(C)=O)C(OC(C)=O)C(OC(C)=O)C3OC(C)=O)nc(SC)n(C)c2=O)c(=O)n1C` (centres undefined) has a GI50 of over 50 µM and a TGI of over 100 µM. `O=S(=O)(Nc1ccc(Cl)cc1Cl)c1ccc(-c2cnc(C3CC3)o2)cc1` showed a GI50 of 1.4 µM and a TGI of 46.2 µM. In the case of `CCc1ccc(/C=C/c2ccc(O)c3ncccc23)[n+](C)c1`, the GI50 is reported as 0.457 µM and the TGI is reported as over 100 µM. `S=c1[nH]c2c(Cl)c(Cl)c(Cl)c(Cl)c2[nH]1` was tested, and the TGI was 47 µM. For `Cc1ccc(Nc2oc(-c3ccccc3)nc2[P+](c2ccccc2)(c2ccccc2)c2ccccc2)cc1`, the GI50 was 0.888 µM and the TGI was 2.51 µM. `CS(=O)(=O)Nc1cc(-c2ccc3ncnc(Nc4c(Cl)ccc5c4OCO5)c3c2)cnc1Cl` was tested, and the GI50 was 0.202 µM and the TGI was over 100 µM. `COc1ccccc1Nc1ncc(-c2ccccc2)o1` was tested, and the GI50 was over 25 µM and the TGI was over 25 µM. `Nc1ccn(C2OC(CO)C(O)C2O)c(=O)n1` (centres undefined) was tested, and the GI50 was 2.05 µM and the TGI was > 100 µM and 457 µM and > 500 µM. `O=C1CCC(=O)c2c1c(O)c1ccncc1c2O` showed a TGI of 31.6 µM. `CN(C)c1ccc(N=Nc2ccccn2)c(O)c1` was tested, and the GI50 was 0.396 µM and the TGI was over 100 µM. Compound `CN1CC[C@@H](c2c(O)cc(O)c3c(=O)cc(-c4ccc(C(F)(F)F)cc4Cl)oc23)[C@@H]1CO` has a GI50 of 16.4 µM and a TGI of 44.6 µM. With `COC(=O)C1=C(C(=O)OC)C2=S(SC3=C2CCCC3)S1` (centres undefined) the TGI was over 100 µM. Compound `O=C(NNc1ccccc1)C(=O)NNc1ccccc1` has a GI50 of over 100 µM and a TGI of over 100 µM. Work on `O=C(Nc1ccc(Cl)c(C(F)(F)F)c1)c1ccc(NC2=C(Cl)C(=O)N(Cc3ccccc3)C2=O)cc1` yielded a GI50 of 17.9 µM and a TGI of 31.8 µM.
